In ChEMBL document CHEMBL3044856, “Molecular docking of glycogen synthase kinase3- inhibitor oleanolic acid and its wound-healing activity in rats” (Med Chem Res, 2013):
The source made the active and inactive calls. No cut-off for these calls is given here.

How the values were obtained:
Mus musculus [1] = assay: Wound-healing activity in ip dosed Swiss albino Mus musculus (mouse) excision wound model assessed as time required for complete epithelialization of excision wound (reference value: 22.75 +/- 0.13 days); assay type: functional
Mus musculus [2] = assay: Wound-healing activity in ip dosed Swiss albino Mus musculus (mouse) excision wound model assessed as closure of excision wound area measured on day 8 (reference value: 54.64 +/- 1.17%); assay type: functional
Mus musculus [3] = assay: Wound-healing activity in ip dosed Swiss albino Mus musculus (mouse) excision wound model assessed as closure of excision wound area measured on day 4 (reference value: 25.32 +/- 3.31%); assay type: functional
Mus musculus [4] = assay: Wound-healing activity in ip dosed Swiss albino Mus musculus (mouse) dead space wound model assessed as increase in wet weight of granuloma tissue measured on day 10 (reference value: 79.56 +/- 1.05 mg); assay type: functional
Mus musculus [5] = assay: Wound-healing activity in ip dosed Swiss albino Mus musculus (mouse) excision wound model assessed as closure of excision wound area measured on day 16 (reference value: 81.36 +/- 0.83%); assay type: functional
Mus musculus [6] = assay: Wound-healing activity in ip dosed Swiss albino Mus musculus (mouse) assessed as increase in collagenation in granulation tissue measured on day 10 by hematoxylin and eosin staining-based histological analysis relative to untreated control; assay type: functional, organism-based
Mus musculus [7] = assay: Wound-healing activity in ip dosed Swiss albino Mus musculus (mouse) dead space wound model assessed as increase in hydroxyproline content measured per 100 g of tissue measured on day 10 (reference value: 1411.15 +/- 6.26 ug); assay type: functional
Mus musculus [8] = assay: Wound-healing activity in ip dosed Swiss albino Mus musculus (mouse) incision wound model assessed as increase in tensil strength of incision wound measured on day 10 (reference value: 356.13 +/- 14.55 g); assay type: functional
Mus musculus [9] = assay: Wound-healing activity in ip dosed Swiss albino Mus musculus (mouse) assessed as decrease in macrophage accumulation in granulation tissue measured on day 10 by hematoxylin and eosin staining-based histological analysis relative to untreated control; assay type: functional, organism-based
Mus musculus [10] = assay: Wound-healing activity in ip dosed Swiss albino Mus musculus (mouse) dead space wound model assessed as increase in dry weight of granuloma tissue measured on day 10 (reference value: 11.52 +/- 0.9 mg); assay type: functional
Mus musculus [11] = assay: Wound-healing activity in ip dosed Swiss albino Mus musculus (mouse) excision wound model assessed as closure of excision wound area measured on day 12 (reference value: 66.04 +/- 0.94%); assay type: functional
Mus musculus [12] = assay: Wound-healing activity in ip dosed Swiss albino Mus musculus (mouse) dead space wound model assessed as increase in tissue breaking strength measured on day 10 (reference value: 366.32 +/- 14.40 g); assay type: functional
Mus musculus [13] = assay: Wound-healing activity in Swiss albino Mus musculus (mouse) dead space wound model assessed as increase in dry weight of granuloma tissue at 3 mg/ml, ip measured on day 10 (reference value: 11.52 +/- 0.9 mg); assay type: functional
Mus musculus [14] = assay: Wound-healing activity in Swiss albino Mus musculus (mouse) excision wound model assessed as closure of excision wound area at 3 mg/ml, ip measured on day 4 (reference value: 25.32 +/- 3.31%); assay type: functional
Mus musculus [15] = assay: Wound-healing activity in Swiss albino Mus musculus (mouse) excision wound model assessed as closure of excision wound area at 3 mg/ml, ip measured on day 16 (reference value: 81.36 +/- 0.83%); assay type: functional
Mus musculus [16] = assay: Wound-healing activity in Swiss albino Mus musculus (mouse) dead space wound model assessed as increase in tissue breaking strength at 3 mg/ml, ip measured on day 10 (reference value: 366.32 +/- 14.40 g); assay type: functional
Mus musculus [17] = assay: Wound-healing activity in Swiss albino Mus musculus (mouse) excision wound model assessed as closure of excision wound area at 3 mg/ml, ip measured on day 12 (reference value: 66.04 +/- 0.94%); assay type: functional
Mus musculus [18] = assay: Wound-healing activity in Swiss albino Mus musculus (mouse) excision wound model assessed as time required for complete epithelialization of excision wound at 3 mg/ml, ip (reference value: 22.75 +/- 0.13 days); assay type: functional
Mus musculus [19] = assay: Wound-healing activity in Swiss albino Mus musculus (mouse) assessed as increase in collagenation in granulation tissue at 3 mg/ml, ip measured on day 10 by hematoxylin and eosin staining-based histological analysis relative to untreated control; assay type: functional, organism-based
Mus musculus [20] = assay: Wound-healing activity in Swiss albino Mus musculus (mouse) incision wound model assessed as increase in tensil strength of incision wound at 12 mg/kg/day, ip measured on day 10 (reference value: 356.13 +/- 14.55 g); assay type: functional; conditions: route intraperitoneal
Mus musculus [21] = assay: Wound-healing activity in Swiss albino Mus musculus (mouse) assessed as decrease in macrophage accumulation in granulation tissue at 3 mg/ml, ip measured on day 10 by hematoxylin and eosin staining-based histological analysis relative to untreated control; assay type: functional, organism-based
Mus musculus [22] = assay: Wound-healing activity in Swiss albino Mus musculus (mouse) dead space wound model assessed as increase in wet weight of granuloma tissue at 3 mg/ml, ip measured on day 10 (reference value: 79.56 +/- 1.05 mg); assay type: functional
Mus musculus [23] = assay: Wound-healing activity in Swiss albino Mus musculus (mouse) dead space wound model assessed as increase in hydroxyproline content measured per 100 g of tissue at 3 mg/ml, ip measured on day 10 (reference value: 1411.15 +/- 6.26 ug); assay type: functional
Mus musculus [24] = assay: Wound-healing activity in Swiss albino Mus musculus (mouse) excision wound model assessed as closure of excision wound area at 3 mg/ml, ip measured on day 8 (reference value: 54.64 +/- 1.17%); assay type: functional
Mus musculus [25] = assay: Acute toxicity in Swiss albino Mus musculus (mouse) assessed as mortality up to 120 mg/kg, ip; assay type: organism-based; parameters: dose 120 mg/kg, route intraperitoneal; conditions: in vivo
Mus musculus [26] = assay: Acute toxicity in Swiss albino Mus musculus (mouse) assessed as abnormal behavior up to 120 mg/kg, ip; assay type: organism-based; parameters: dose 120 mg/kg, route intraperitoneal; conditions: in vivo

SMILES: Nc1ccc(S(=O)(=O)Nc2nccs2)cc1 [SULFATHIAZOLE]
- Time (Mus musculus [1]): 18.36 days
- Activity (Mus musculus [2]): 74.54%
- Activity (Mus musculus [3]): 39.94%
- Activity (Mus musculus [4]): 131.4 mg
- Activity (Mus musculus [5]): 96.94%
- Activity (Mus musculus [6]): Active
- Activity (Mus musculus [7]): 2427.33 µg
- Activity (Mus musculus [8]): 582.04 g
- Activity (Mus musculus [9]): Active
- Activity (Mus musculus [10]): 28.42 mg
- Activity (Mus musculus [11]): 84.46%
- Activity (Mus musculus [12]): 617.39 g

SMILES: CC1(C)CC[C@]2(C(=O)O)CC[C@]3(C)C(=CC[C@@H]4[C@@]5(C)CC[C@H](O)C(C)(C)[C@@H]5CC[C@]43C)[C@@H]2C1 [OLEANOLIC_ACID]
- Activity (Mus musculus [13]): 26.25 mg
- Activity (Mus musculus [14]): 36.13%
- Activity (Mus musculus [15]): 96.82%
- Activity (Mus musculus [16]): 599.08 g
- Activity (Mus musculus [17]): 86.06%
- Time (Mus musculus [18]): 18.48 days
- Activity (Mus musculus [19]): Active
- Activity (Mus musculus [20]): 580.83 g
- Activity (Mus musculus [21]): Active
- Activity (Mus musculus [22]): 127.12 mg
- Activity (Mus musculus [23]): 2124.91 µg
- Activity (Mus musculus [24]): 79.11%
- Activity (Mus musculus [25]): Non-toxic
- Activity (Mus musculus [26]): Non-toxic
